What all share (type): cell-based
Assay [1] relates to Streptococcus pyogenes A 77. As to the kind of experiment: MIC, standard strain 2. The settings on record: A77, S. pyogenes A 77, two-fold dilution, Muller Hinton agar, 10^7 CFU/ml, 37° C., 18 hours, read-out: Minimal Inhibitory Concentration(MIC). The procedure:
(§1) In order to illustrate antibiotic effectiveness of the compounds of the present invention, the minimal inhibitory concentrations (MIC's) of the representative compounds were determined against standard strains and compared with ceftazidime and cefpirome, which were used as control compounds.
(§2) The MIC values were taken by employing a two-fold dilution method: that is, two-fold serial dilutions of each of the test compounds were made from initial concentration of […]; each 1.5 ml of them was dispersed in 13.5 ml of Muller Hinton agar medium to adjust to […]; the standard test strain which had the concentration of 10^7 CFU/ml was inoculated by medium;and these were incubated at 37° C. for 18 hours.
(§3) The test used twenty kinds of standard test strains which induced urinary tract infections, respiratory organ infections, skin soft tissue infections, plasma infections, gastrointestinal infections, central nervous system infections, most of which produce β-lactamase. The standard test strains used are as follows:
2. Streptococcus pyogenes A 77

Assay [2] relates to Staphylococcus aureus 285. The assay can be described thus: MIC, standard strain 5. To be noted: Staphylococcus aureus; S. aureus 285; two-fold dilution, Muller Hinton agar, 10^7 CFU/ml, 37° C., 18 hours; read-out: Minimal Inhibitory Concentration(MIC). On the procedure: as §1, §2, §3
5. Staphylococcus aureus 285

Assay [3] has as its system Pseudomonas aeruginosa 1771. The assay can be described thus: MIC, standard strain 14. The settings on record: Pseudomonas aeruginosa; P. aeruginosa 1771; two-fold dilution, Muller Hinton agar, 10^7 CFU/ml, 37° C., 18 hours; read-out: Minimal Inhibitory Concentration(MIC). The procedure:
as §1, §2, §3
14. Pseudomonas aeruginosa 1771

For assay [4], the system named is Enterobacter cloacae 1321 E. As to the kind of experiment: MIC, standard strain 20. To be noted: read-out: Minimal Inhibitory Concentration(MIC). The procedure: as §1, §2, §3
20. Enterobacter cloacae 1321 E

The subject of the next assay is Streptococcus faecium 8b. As to the kind of experiment: MIC, standard strain 3. The settings on record: Enterococcus faecium, read-out: Minimal Inhibitory Concentration(MIC). On the procedure:
as §1, §2, §3
3. Streptococcus faecium 8b

In a further assay the test system is Escherichia coli DC 2. As to the kind of experiment: MIC, standard strain 9. The settings on record: DC2, E. coli DC 2, two-fold dilution, Muller Hinton agar, 10^7 CFU/ml, 37° C., 18 hours, read-out: Minimal Inhibitory Concentration(MIC). The procedure: as §1, §2
(§4) The test used twenty kinds of standard test strains which induced urinary tract infections, respiratory organ infections, skin soft tissue infections, plasma infections, gastrointestinal infections, central nervous system infections, most of which produce β-lactamase.

Assay [5] has as its system Staphylococcus aureus 503. As to the kind of experiment: MIC, standard strain 6. The settings on record: read-out: Minimal Inhibitory Concentration(MIC). On the procedure: as §1, §2, §3
6. Staphylococcus aureus 503

In assay [6] the test system is Pseudomonas aeruginosa 9.027. As to the kind of experiment: MIC, standard strain 12. The settings on record: Pseudomonas aeruginosa; P. aeruginosa 9.027; two-fold dilution, Muller Hinton agar, 10^7 CFU/ml, 37° C., 18 hours; read-out: Minimal Inhibitory Concentration(MIC). The procedure: as §1, §2, §3
12. Pseudomonas aeruginosa 9.027

For assay [7], the system named is Streptococcus pyogenes A 308. As to the kind of experiment: MIC, standard strain 1. The settings on record: read-out: Minimal Inhibitory Concentration(MIC). On the procedure: as §1, §2, §3
1. Streptococcus pyogenes A 308

In assay [8] the test system is Enterobacter cloacae P 99. The assay can be described thus: MIC, standard strain 19. The settings on record: P99, 18 h, read-out: Minimal Inhibitory Concentration(MIC). On the procedure: as §1, §2, §3
19. Enterobacter cloacae P 99

In assay [9] the test system is Klebsiella aerogenes 1552 E. As to the kind of experiment: MIC, standard strain 18. The settings on record: K. aerogenes 1552 E, two-fold dilution, Muller Hinton agar, 10^7 CFU/ml, 37° C., 18 hours, read-out: Minimal Inhibitory Concentration(MIC). The procedure: as §1, §2, §3
18. Klebsiella aerogenes 1552 E

For a further assay, the system named is Escherichia coli TEM. The assay can be described thus: MIC, standard strain 10. To be noted: 18 h, read-out: Minimal Inhibitory Concentration(MIC). On the procedure: as §1, §2, §4
The test system of another assay is Escherichia coli DC 0. As to the kind of experiment: MIC, standard strain 8. To be noted: DC0, E. coli DC 0, two-fold dilution, Muller Hinton agar, 10^7 CFU/ml, 37° C., 18 hours, read-out: Minimal Inhibitory Concentration(MIC). The procedure: as §1, §2, §4
Assay [10] concerns Staphylococcus aureus SG 511. As to the kind of experiment: MIC, standard strain 4. The settings on record: SG511, S. aureus SG 511, two-fold dilution, Muller Hinton agar, 10^7 CFU/ml, 37° C., 18 hours, read-out: Minimal Inhibitory Concentration(MIC). On the procedure:
as §1, §2, §3
4. Staphylococcus aureus SG 511

Another assay deals with Salmonella typhimurium. The assay can be described thus: MIC, standard strain 16. To be noted: Salmonella enterica; S. typhimurium; two-fold dilution, Muller Hinton agar, 10^7 CFU/ml, 37° C., 18 hours; read-out: Minimal Inhibitory Concentration(MIC). On the procedure: as §1, §2, §3
16. Salmonella typhimurium

Assay [11] concerns Pseudomonas aeruginosa 1592 E. As to the kind of experiment: MIC, standard strain 13. To be noted: P. aeruginosa 1592 E, two-fold dilution, Muller Hinton agar, 10^7 CFU/ml, 37° C., 18 hours, read-out: Minimal Inhibitory Concentration(MIC). The procedure: as §1, §2, §3
13. Pseudomonas aeruginosa 1592 E

For assay [12], the system named is Pseudomonas aeruginosa 1771M. As to the kind of experiment: MIC, standard strain 15. To be noted: 18 h, read-out: Minimal Inhibitory Concentration(MIC). On the procedure:
as §1, §2, §3
15. Pseudomonas aeruginosa 1771M

For the next assay, the system named is Escherichia coli 0 55. The assay can be described thus: MIC, standard strain 7. To be noted: 055, E. coli 0 55, two-fold dilution, Muller Hinton agar, 10^7 CFU/ml, 37° C., 18 hours, read-out: Minimal Inhibitory Concentration(MIC). The procedure: as §1, §2, §4
The subject of another assay is Escherichia coli 1507 E. The assay can be described thus: MIC, standard strain 11. The settings on record: E. coli 1507 E, two-fold dilution, Muller Hinton agar, 10^7 CFU/ml, 37° C., 18 hours, read-out: Minimal Inhibitory Concentration(MIC). The procedure: as §1, §2, §4
Setting [13] is: S. faecium 8b, two-fold dilution, Muller Hinton agar, 10^7 CFU/ml, 37° C., 18 hours.
Where [14] appears, read: Staphylococcus aureus, S. aureus 503, two-fold dilution, Muller Hinton agar, 10^7 CFU/ml, 37° C., 18 hours.
The mark [15] stands for this setting: A308, S. pyogenes A 308, two-fold dilution, Muller Hinton agar, 10^7 CFU/ml, 37° C., 18 hours.
Setting [16] is: E. cloacae 1321 E, two-fold dilution, Muller Hinton agar, 10^7 CFU/ml, 37° C., 18 hours.

Values after ≈ are worked out from the molar mass of the structure shown. Where two headings read alike, the source gives them in different places.

Regarding `NC(=O)c1cc[n+](CC2=C(C(=O)[O-])N3C(=O)[C@@H](NC(=O)/C(=N\OCCF)c4csc(N)n4)[C@H]3SC2)c2c1CCC2` [Example 14, 7-β-[(Z)-2-(2-aminothiazol-4-yl)-2-(2-fluoroethoxyimino)acetamido]-3-[(2,3-cyclopenteno-4-carbamoyl-l-pyridinium)methyl]-3-cephem-4-carboxylate], the MIC was found to be 13 µg/mL (≈ 22 µM) in [1]; 3120 µg/mL (≈ 5300 µM) in assay [2]; 781 µg/mL (≈ 1320 µM) in assay [3]; 25 µg/mL (≈ 42.4 µM) in assay [4] (1321E, 18 h); 25000 µg/mL (≈ 42400 µM) in the assay with Streptococcus faecium 8b (setting [13]); 49 µg/mL (≈ 83.1 µM) in the assay on Escherichia coli DC 2. Also, the MIC in [5] (setting [14]) was found to be 781 µg/mL (≈ 1320 µM); in assay [6], 6250 µg/mL (≈ 10600 µM); in assay [7] (setting [15]), 13 µg/mL (≈ 22 µM); in assay [8], 12500 µg/mL (≈ 21200 µM); in assay [9], 49 µg/mL (≈ 83.1 µM); in the assay on Escherichia coli TEM, 98 µg/mL (≈ 166 µM). The MIC in the assay on Escherichia coli DC 0 was 49 µg/mL (≈ 83.1 µM); in assay [10] it was 781 µg/mL (≈ 1320 µM); with Salmonella typhimurium it was 49 µg/mL (≈ 83.1 µM); in assay [11], 6250 µg/mL (≈ 10600 µM); in assay [12] it was 391 µg/mL (≈ 663 µM); in the assay with Escherichia coli 0 55 it was 13 µg/mL (≈ 22 µM). The MIC with Escherichia coli 1507 E worked out at 49 µg/mL (≈ 83.1 µM).

`CO/N=C(\C(=O)N[C@@H]1C(=O)N2C(C(=O)[O-])=C(C[n+]3ccc(NC(C)=O)c4c3CCC4)CS[C@H]12)c1csc(N)n1` [Example 17, 7-β-[(Z)-2-(2-aminothiazol-4-yl)-2-methoxyiminoacetamido]-3-[(4-acetamido-2,3-cyclopenteno-1-pyridinium)methyl]-3-cephem-4-carboxylate]: the MIC in [1] is below 2 µg/mL; in [2], 1560 µg/mL (≈ 2730 µM); in [3], 6250 µg/mL (≈ 10900 µM); in assay [4] (setting [16]) it was 13 µg/mL (≈ 22.7 µM); with Streptococcus faecium 8b (8B, 18 h) it was 100000 µg/mL (≈ 175000 µM); in the assay with Escherichia coli DC 2 it was 13 µg/mL (≈ 22.7 µM). In addition, the MIC in [5] (Staphylococcus aureus, 503, 18 h) was 195 µg/mL (≈ 341 µM); in assay [6], 12500 µg/mL (≈ 21900 µM); in assay [7] (A308, 18 h) it was below 2 µg/mL; in [8], 12500 µg/mL (≈ 21900 µM); in assay [9] it was 13 µg/mL (≈ 22.7 µM); with Escherichia coli TEM it was 25 µg/mL (≈ 43.7 µM). In addition, the MIC in the assay on Escherichia coli DC 0 came out at 13 µg/mL (≈ 22.7 µM); in assay [10], 781 µg/mL (≈ 1370 µM); in the assay with Salmonella typhimurium, 49 µg/mL (≈ 85.7 µM); in assay [11], 6250 µg/mL (≈ 10900 µM); in [12], 1560 µg/mL (≈ 2730 µM); with Escherichia coli 0 55 it was 25 µg/mL (≈ 43.7 µM). Also, the MIC in the assay with Escherichia coli 1507 E was 25 µg/mL (≈ 43.7 µM).

In the case of `CO/N=C(\C(=O)N[C@@H]1C(=O)N2C(C(=O)[O-])=C(C[n+]3ccc(NC=O)c4c3CCC4)CS[C@H]12)c1csc(N)n1` [Example 19], the MIC in assay [1] was below 2 µg/mL; in assay [2], 391 µg/mL (≈ 701 µM); in assay [3], 12500 µg/mL (≈ 22400 µM); in assay [4] (setting [16]) it was 7 µg/mL (≈ 12.6 µM); in the assay on Streptococcus faecium 8b (setting [13]) it was 25000 µg/mL (≈ 44800 µM); with Escherichia coli DC 2, 13 µg/mL (≈ 23.3 µM). The MIC in assay [5] (setting [14]) was 98 µg/mL (≈ 176 µM); in [6], 12500 µg/mL (≈ 22400 µM); in assay [7] (setting [15]), below 2 µg/mL; in [8], 12500 µg/mL (≈ 22400 µM); in [9] it was 49 µg/mL (≈ 87.9 µM); in the assay with Escherichia coli TEM, 49 µg/mL (≈ 87.9 µM). Further, the MIC is 13 µg/mL (≈ 23.3 µM) in the assay on Escherichia coli DC 0; 391 µg/mL (≈ 701 µM) in assay [10]; 195 µg/mL (≈ 350 µM) in the assay on Salmonella typhimurium; 12500 µg/mL (≈ 22400 µM) in [11]; 1560 µg/mL (≈ 2800 µM) in [12]; 7 µg/mL (≈ 12.6 µM) in the assay on Escherichia coli 0 55. Moreover, the MIC in the assay with Escherichia coli 1507 E was 98 µg/mL (≈ 176 µM).

The values above are taken from patent US5593985A, “Cephalosporin compounds” (priority 1994, dated 1997).
